Source: patent US11566039B2, “Lincosamide antibiotics and uses thereof” (President and Fellows of Harvard College, priority 2017, dated 2023)
≈ marks a conversion by molar mass, not a printed value. Where two headings read alike, the source gives them in different places.

Key:
Assay type in all cases: cell-based
S. aureus BAA 977 iErmA = assay: MIC against S. aureus BAA 977 iErmA; conditions: Staphylococcus aureus, BAA977
E. coli MP-9 ΔTolC = assay: MIC against E. coli MP-9 ΔTolC
S. pyogenes ATCC 19615 = assay: MIC against S. pyogenes ATCC 19615
K. pneumoniae ATCC 10031 = assay: MIC against K. pneumoniae ATCC 10031
E. faecalis ATCC 29212 = assay: MIC against E. faecalis ATCC 29212
S. pneumoniae ATCC 49619 = assay: MIC against S. pneumoniae ATCC 49619
E. coli ATCC 25922 = assay: MIC against E. coli ATCC 25922
[1] = tested on: E. coli MP-74 LptD mutant; assay: MIC against E. coli MP-74 LptD mutant
S. aureus ATCC 29213 = assay: MIC against S. aureus ATCC 29213
[2] = tested on: S. aureus MP-549 msr(a) USA 300; assay: MIC against S. aureus MP-549 msr(a) USA 300
H. influenzae ATCC 49247 = assay: MIC against H. influenzae ATCC 49247
[3] = Streptococcus pyogenes, ATCC19615, S. pyogenes ATCC 19615, read-out: MIC
[4] = Klebsiella pneumoniae, ATCC10031, read-out: MIC
[5] = Enterococcus faecalis, ATCC29212, E. faecalis ATCC 29212, read-out: MIC
[6] = Streptococcus pneumoniae, ATCC49619, S. pneumoniae ATCC 49619, read-out: MIC
[7] = Escherichia coli, ATCC25922, read-out: MIC
[8] = Staphylococcus aureus, ATCC29213, S. aureus ATCC 29213, read-out: MIC
[9] = Staphylococcus aureus, USA300, S. aureus MP-549 msr(a) USA 300
[10] = Haemophilus influenzae, ATCC49247, H. influenzae ATCC 49247, read-out: MIC

SMILES | MIC (S. aureus BAA 977 iErmA) [µg/mL] | MIC (E. coli MP-9 ΔTolC; Escherichia coli) [µg/mL] | MIC (S. pyogenes ATCC 19615; [3]) [µg/mL] | MIC (K. pneumoniae ATCC 10031; [4]) [µg/mL] | MIC (E. faecalis ATCC 29212; [5]) [µg/mL] | MIC (S. pneumoniae ATCC 49619; [6]) [µg/mL] | MIC (E. coli ATCC 25922; [7]) [µg/mL] | MIC ([1]; Escherichia coli) [µg/mL] | MIC (S. aureus ATCC 29213; [8]) [µg/mL] | further results
CCC[C@@H]1C[C@@H](C(=O)N[C@@H]([C@H]2OC(SC)[C@H](O)C(O)C2O)[C@H](C)n2ccnc2)N(C)C1 (some centres unmarked) [FSA-215064] | > 64 | > 64 | 8 (≈ 17.5 µM) | > 64 | > 64 | 16 (≈ 35 µM) | > 64 | > 64 | 64 (≈ 140 µM) | 
CCC[C@@H]1C[C@@H](C(=O)N[C@H](COC(=O)Nc2ccccc2)[C@H]2OC(SC)[C@H](O)C(O)C2O)N(C)C1 (some centres unmarked) [FSA-215036] | > 64 | > 64 | 64 (≈ 125 µM) | > 64 | > 64 | 16 (≈ 31.3 µM) | > 64 |  | > 64 | 
CCC[C@@H]1C[C@@H](C(=O)N[C@@H]([C@H]2OC(SC)[C@H](O)C(O)C2O)[C@H](C)N(C)Cc2ccccc2[N+](=O)[O-])N(C)C1 (some centres unmarked) [FSA-215081] | 4 (≈ 7.21 µM) | > 64 | 1 (≈ 1.8 µM) | > 64 | > 64 | 2 (≈ 3.61 µM) | > 64 | > 64 | 4 (≈ 7.21 µM) | MIC [2, 9]: 4 µg/mL (≈ 7.21 µM); MIC (H. influenzae ATCC 49247; [10]): > 64 µg/mL
CCC[C@@H]1C[C@@H](C(=O)N[C@H]([C@H](C)NC(=O)CCCN)[C@H]2OC(SC)[C@H](O)C(O)C2O)N(C)C1 (some centres unmarked) [FSA-215052] | > 64 | > 64 | 32 (≈ 65.2 µM) | > 64 | > 64 | > 64 | > 64 |  | > 64 | 
CCC[C@@H]1C[C@@H](C(=O)N[C@@H]([C@H]2OC(SC)[C@H](O)C(O)C2O)[C@H](C)n2cc(CN)nn2)N(C)C1 (some centres unmarked) [FSA-215072] | > 64 | > 64 | 8 (≈ 16.4 µM) | > 64 | > 64 | 8 (≈ 16.4 µM) | > 64 | > 64 | > 64 | 
CCC[C@@H]1C[C@@H](C(=O)N[C@H](CN)[C@H]2OC(SC)[C@H](O)C(O)C2O)N(C)C1 (some centres unmarked) [FSA-215077] | > 64 | > 64 | > 64 | > 64 | > 64 | > 64 | > 64 | > 64 | > 64 | MIC [2, 9]: > 64 µg/mL; MIC (H. influenzae ATCC 49247; [10]): > 64 µg/mL
CCC[C@@H]1C[C@@H](C(=O)N[C@H]([C@H](C)NC(=O)CCN)[C@H]2OC(SC)[C@H](O)C(O)C2O)N(C)C1 (some centres unmarked) [FSA-215054] | > 64 | > 64 | 64 (≈ 134 µM) | > 64 | > 64 | > 64 | > 64 |  | > 64 | 
CCC[C@@H]1C[C@@H](C(=O)N[C@H]([C@H](C)N=[N+]=[N-])[C@H]2OC(SC)[C@H](O)C(O)C2O)N(C)C1 (stereo partly drawn) [FSA-215038, 7-(S)-deoxyazidolincomycin] | 0.5 (≈ 1.16 µM) | > 64 | 0.125 (≈ 0.29 µM) | > 64 | 32 (≈ 74.1 µM) | 0.25 (≈ 0.579 µM) | > 64 |  | 0.25 (≈ 0.579 µM) | 
CCC[C@@H]1C[C@@H](C(=O)N[C@H]([C@H](C)NCc2ccc(F)cc2)[C@H]2OC(SC)[C@H](O)C(O)C2O)N(C)C1 (some centres unmarked) [FSA-215025d] | 4 (≈ 7.79 µM) | > 64 | 1 (≈ 1.95 µM) | > 64 | > 64 | 2 (≈ 3.89 µM) | > 64 |  | 4 (≈ 7.79 µM) | 
CCC[C@@H]1C[C@@H](C(=O)N[C@@H]([C@H]2OC(SC)[C@H](O)C(O)C2O)C(C)(C)C(C)N=[N+]=[N-])N(C)C1 (single isomer, unassigned) [FSA-217021b] |  |  |  |  |  |  |  |  |  | MIC ([2]; S. aureus MP-549 msr(a) USA 300): 0.25 µg/mL (≈ 0.528 µM); MIC (E. coli MP-9 ΔTolC): 32 µg/mL (≈ 67.6 µM); MIC (S. pyogenes ATCC 19615; S. pyogenes ATCC 19615): 0.12 µg/mL (≈ 0.253 µM); MIC (K. pneumoniae ATCC 10031): >64 µg/mL; MIC (E. faecalis ATCC 29212; E. faecalis ATCC 29212): 64 µg/mL (≈ 135 µM); MIC (S. pneumoniae ATCC 49619; S. pneumoniae ATCC 49619): 0.12 µg/mL (≈ 0.253 µM); MIC (E. coli ATCC 25922): >64 µg/mL; MIC [1]: 8 µg/mL (≈ 16.9 µM); MIC (H. influenzae ATCC 49247; H. influenzae ATCC 49247): 32 µg/mL (≈ 67.6 µM); MIC (S. aureus ATCC 29213; S. aureus ATCC 29213): 0.25 µg/mL (≈ 0.528 µM)
CCC[C@@H]1C[C@@H](C(=O)N[C@H]([C@H](C)NC(=N)N)[C@H]2OC(SC)[C@H](O)C(O)C2O)N(C)C1 (some centres unmarked) [FSA-215059] | 32 (≈ 71.5 µM) | > 64 | 4 (≈ 8.94 µM) | > 64 | > 64 | 8 (≈ 17.9 µM) | > 64 | > 64 | 32 (≈ 71.5 µM) | 
CCC[C@@H]1C[C@@H](C(=O)N[C@H]([C@H](C)NC2CC2)[C@H]2OC(SC)[C@H](O)C(O)C2O)N(C)C1 (some centres unmarked) [FSA-215028c] | 32 (≈ 71.8 µM) | > 64 | 8 (≈ 18 µM) | > 64 | > 64 | 16 (≈ 35.9 µM) | > 64 |  | 64 (≈ 144 µM) | 
CCC[C@@H]1C[C@@H](C(=O)N[C@H]([C@@H]2CCCC2N)[C@H]2OC(SC)[C@H](O)C(O)C2O)N(C)C1 (some centres unmarked) [FSA-217045a] |  | > 64 | > 64 | > 64 | > 64 | 64 (≈ 144 µM) | > 64 | > 64 | > 64 | MIC [2, 9]: > 64 µg/mL; MIC (H. influenzae ATCC 49247; [10]): > 64 µg/mL
C=C[C@@H](NC(=O)[C@@H]1C[C@@H](CCC)CN1C)[C@H]1OC(SC)[C@H](O)C(O)C1O (some centres unmarked) [FSA-215031] | 8 (≈ 20.6 µM) | > 64 | 2 (≈ 5.15 µM) | > 64 | 32 (≈ 82.4 µM) | 2 (≈ 5.15 µM) | > 64 |  | 8 (≈ 20.6 µM) | 
